Test results taken from patent US10596239B2, “Peptide mixture” (TARGOVAX ASA, priority 2013, dated 2020).
Where “and” joins values, the source holds several entries; their conditions need not be identical. Equal entries are not always repeated.

Columns and labels:
T cells = assay: 3-days T cell proliferation assay (3H-thymidine) after three rounds of in vitro stimulation of PBMC bulk cultures with RAS peptides; format: cell-based, human; settings: bulk cultures stimulated three rounds with TG02 + 13R, 10 μM peptide
Description: In this example, Buffy coats were collected from 4 normal human donors (Buffy 1, Buffy 2, Buffy 3, and Buffy 4) and were cultured in vitro. The in vitro PBMCs were stimulated with a single RAS peptide or a mixture of RAS peptides, and T cell proliferation assays performed.
The procedure must be performed at room temperature until point 5. All handling of cells in the open is done in a vertical laminar flow hood. • 1. Rapidly transfer the vials, each vial with frozen PBMC from a buffy coat (Buffy 1, Buffy 2, Buffy 3, and Buffy 4), to a water bath at 37° C. • 2. Shake the vials manually at regular intervals (approx. 2-3 min.) and remove them from the water bath while some ice is still present. • 3. When all the ice is melted, transfer 1 ml of CellGro DC medium drop-wise to the cell suspension. • 4. Transfer the cell suspension to a 50 ml tube containing 20 ml of CellGro DC medium. • 5. Centrifuge cells at 500 G for 5 min at room temperature. • 6. Resuspend the cells in 5 ml CellGro DC medium, • 7. Count the number of viable cells using a Bürker chamber or KOVA Galsstic slides and adjust the cell concentration to 2×10^6cells/ml in complete CellGro DC medium (see recipe). Total cell numbers: Buffy 1-45×10^6, Buffy 2-27.5×10^6, Buffy 3-40.5×10^6, and Buffy 4-40.5×10^6 cells. b. Bulk Cultures for Increasing Number of RAS Peptide Reactive T Cells • 1. […]

splenocytes = assay: Splenocyte proliferation assay (3H-thymidine) following subcutaneous vaccination of mice with TG02; format: cell-based, BALB/c mice; settings: 1 μg/200 μL ConA, 5 days
Description: In this Example, mice were repeatedly vaccinated subcutaneously with TG02, in order to analyse the immune response. Following the vaccination, splenocytes were harvested, and the proliferative response of the splenocytes was measured.
The study was conducted with 3 groups, each compromising 10 female BALB/c mice. The start of the study was performed on two separate days on which 5 of the animals per group were treated. Therefore the groups were divided into part I and part II. The animals were treated subcutaneously at different time points (Table 12).
In all groups the test item was administered at repeated time points (Table 15) by subcutaneous injection between the nape of the neck and the shoulder. The application volume for all groups was 0.1 mL (0.80 mg TG02).
The spleen of all animals was removed, transferred to cell culture medium (RPMI 1640 medium supplemented with 10% FCS, 100 U/ml Penicillin, 100 μg/mL Streptomycin, 2 mM L-Glutamine, and 50 μM beta-mercaptoethanol) and stored on ice. All steps were performed sterile and cells were kept on ice.
A single cell suspension from splenic cells was generated using a cell strainer. After centrifugation (350 g, 5 min, 5±3° C.), supernatant was removed and the cell pellet was resuspended in ACK buffer and incubated for 5 min at RT. 10 mL cell culture medium was added. The samples were left 5 min on bench top to let the cell debris sediment. The suspension above the cell debris was transferred into another tube and was centrifuged (350 g, 5 min, 5±3° C.). The supernatant was removed and the cell pellet was resuspended in 10 mL cell culture medium. After counting of cells, 0.2 Mio cells were seeded in a 96 well plate (180 μL per well; 1,1 *10^6 cells/mL). 9 replicates were plated on each plate for each spleen. • (1) 1 plate for harvesting of supernatant for cytokine measurement after 24 h (results not shown) • (2) 1 plate for harvesting of supernatant for cytokine measurement after 48 h (results not shown) • (3) 1 plate for the proliferation assay
The following stimulations were performed: • 3 replicates: unstimulated (addition of 20 μL cell culture medium) • 3 replicates: stimulation with 10 μM TG02 (8 peptides, 10 μM end concentration per peptide, addition in 20 μL cell culture medium) • 3 replicates: stimulation with 1 μg/200 μL, ConA (Concanavalin A) (addition of 1 μg ConA in 2.0 μL cell culture medium)
Incubation at 37° C. and 5% CO2 for 24 h (1), […] or 5 days (3).
Proliferation Assay • (3) After 5 days, 1 μCi/well ^3H-Thymidine was added to the samples, which were then incubated for 18 h at 37° C. and 5% CO2. The plates were then frozen at ≤−20° C.
Plates were thawed at RT. After washing off the harvester, the samples were transferred to a filter plate using the harvester followed by 5 washing steps using water. Filter plates were dried at RT overnight. A foil was stuck to the bottom of the filter plates and 20 μL scintillation fluid was added to the wells. After incubation of 1 h at RT, the samples were measured using a TopCount NXT and the stimulation index (SI) was calculated. SI=CPM of stimulated samples/CPM of control samples.

Substance	Counts per minute (CPM), APC + T cell + 13C, replicate (T cells; Donor #3)	Counts per minute (CPM), APC + T cell + 13C, mean (T cells; Mean Donor #3)	Counts per minute (CPM), Splenocytes + ConA, mean (splenocytes; Mean Mouse #4, vaccinated with TG02)	Counts per minute (CPM), Splenocytes + ConA, mean (splenocytes; Mean Mouse #7, vaccinated with TG02)	Counts per minute (CPM), Splenocytes + ConA, mean (splenocytes; Mean Mouse #24, vaccinated with TG02 + ViscoGel)	Counts per minute (CPM), Splenocytes + ConA, mean (splenocytes; Mean Mouse #29, vaccinated with TG02 + ViscoGel)	Counts per minute (CPM), Splenocytes + ConA, replicate (splenocytes; Mouse #4, vaccinated with TG02)	Counts per minute (CPM), Splenocytes + ConA, replicate (splenocytes; Mouse #7, vaccinated with TG02)	Counts per minute (CPM), Splenocytes + ConA, replicate (splenocytes; Mouse #24, vaccinated with TG02 + ViscoGel)	Counts per minute (CPM), Splenocytes + ConA, replicate (splenocytes; Mouse #29, vaccinated with TG02 + ViscoGel)	Counts per minute (CPM), Splenocytes + ConA, mean (splenocytes; Mouse #30 (last line, mean), vaccinated with TG02 + ViscoGel)	Counts per minute (CPM), Splenocytes + ConA, replicate (splenocytes; Mouse #30, vaccinated with TG02 + ViscoGel)
KLVVVGAGCVGKSALTI (listed as Homo sapiens) [13C]	27813 CPM and 32522 CPM and 28869 CPM	29735 CPM	–	–	–	–	–	–	–	–	–	–
Concanavalin A [ConA]	–	–	15,210 CPM	6158 CPM	8823 CPM	10,935 CPM	15,113 CPM and 12,612 CPM and 17,906 CPM	5305 CPM and 6252 CPM and 6916 CPM	7834 CPM and 8578 CPM and 10,057 CPM	9480 CPM and 13,292 CPM and 10,033 CPM	36,687 CPM	32,205 CPM and 35,668 CPM and 42,149 CPM
